Laboratory results from BindingDB's records for doi:10.7270/Q2SB4462 (Burnham Center For Chemical Genomics, 2011).

Target: T1, Ubiquitin-conjugating enzyme E2 N (Homo sapiens, UniProt P61088)
T1 sequence (P61088 whole entry): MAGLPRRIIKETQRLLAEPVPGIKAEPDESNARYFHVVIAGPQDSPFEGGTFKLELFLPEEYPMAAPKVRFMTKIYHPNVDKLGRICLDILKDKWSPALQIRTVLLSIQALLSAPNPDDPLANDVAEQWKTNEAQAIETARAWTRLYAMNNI
Assay: concentration-dependent UBC13 chain formation blockade – biochemical, TR-FRET, reconfirmation, dose response (AID 493182)

C#CCOCCOCCOCCNc1nc(N2CCN(C(=O)CCCCCCCCCCNC(=O)[C@H]([C@@H](C)CC)n3cc(CCCCN=C(N)N)nn3)CC2)nc(N2CCN(C(=O)CCCCCCCCCCNC(=O)[C@H](CCCCN)n3cc(C)nn3)CC2)n1 [RI-GK]
IC50: 1.68 µM

CCCCNC(=S)N/N=C1\C(=O)Nc2ccccc21 [1-butyl-3-[(2-oxidanylideneindol-3-yl)amino]thiourea]
IC50: 5.96 µM

COCCNC(=S)NNC1=c2cc(C)cc(C)c2=NC1=O [MLS000774564]
IC50: 0.561 µM

CCOC(=O)c1c(C)c2c(n1C)CCCC2N=O (stereo not given) [MLS000026784]
IC50: 8.75 µM

CC(=O)N1N=C(C2C(=O)N(C)C(=O)N(C)C2=O)CC1c1ccccc1 (stereo not given) [5-(1-acetyl-5-phenylpyrazolidin-3-ylidene)-1,3-dimethyl-1,3-diazinane-2,4,6-trione]
IC50: 19.5 µM

COc1ccc2nc(C)cc(N=NCc3ccc(F)cc3)c2c1 [N-[(4-fluorophenyl)methylideneamino]-6-methoxy-2-methyl-4-quinolinamine]
IC50: 10.1 µM

C#CCOCCOCCOCCNc1nc(N2CCN(C(=O)[C@H](CCCCN)n3cc([C@@H](N)C(C)CC)nn3)CC2)nc(N2CCN(C(=O)[C@H](Cc3cc4ccccc4[nH]3)n3cc([C@@H](N)CC(C)C)nn3)CC2)n1 (stereo not given in full) [SMR000391070]
IC50: 2.07 µM

COc1ccc(CN=Nc2cc(C)nc3ccc(OC)cc23)c(OC)c1
IC50: 6.39 µM

C#CCOCCOCCOCCNc1nc(N2CCN(C(=O)[C@H](CCCCN)n3cc([C@@H](N)C(C)CC)nn3)CC2)nc(N2CCN(C(=O)[C@H](Cc3ccc(O)cc3)n3cc([C@@H](N)C(C)CC)nn3)CC2)n1 (stereo not given in full) [SMR000391090]
IC50: 10.2 µM

COC(=O)c1ccc(CN2C(=O)C(=NNC(N)=S)c3ccccc32)o1
IC50: > 20 µM

C#CCOCCOCCOCCNc1nc(N2CCN(C(=O)CCCCCCCCCCNC(=O)[C@@H](CCSC)n3cc(CCO)nn3)CC2)nc(N2CCN(C(=O)CCCCCCCCCCNC(=O)[C@H](CO)n3cc(CCCCCN)nn3)CC2)n1 [MLS002153734]
IC50: 4.24 µM

C#CCOCCOCCOCCNc1nc(N2CCN(C(=O)CCCCCCCCCCNC(=O)[C@H]([C@@H](C)CC)n3cc(CCCCCN)nn3)CC2)nc(N2CCN(C(=O)CCCCCCCCCCNC(=O)[C@H](CCCCN)n3cc(CCCC(=O)O)nn3)CC2)n1 [KI-EK]
IC50: 6.08 µM

Cc1cccc(NC(=S)NNC2=c3ccccc3=NC2=O)c1
IC50: 0.594 µM

C#CCOCCOCCOCCNc1nc(N2CCN(C(=O)CCCCCCCCCCNC(=O)[C@@H](CCC(=O)O)n3cc(CCCCCN)nn3)CC2)nc(N2CCN(C(=O)CCCCCCCCCCNC(=O)[C@H]([C@@H](C)CC)n3cc(CCCCCN)nn3)CC2)n1 [KI-KE]
IC50: 6.61 µM

C#CCOCCOCCOCCNc1nc(N2CCN(C(=O)CCCCCCCCCCNC(=O)Cn3cc(CCCCCN)nn3)CC2)nc(N2CCN(C(=O)CCCCCCCCCCNC(=O)[C@H](CO)n3cc(CCCSC)nn3)CC2)n1 [MLS002153667]
IC50: 4.08 µM

C#CCOCCOCCOCCNc1nc(N2CCN(C(=O)CCCCCCCCCCNC(=O)Cn3cc(C[C@@H](C)O)nn3)CC2)nc(N2CCN(C(=O)CCCCCCCCCCNC(=O)[C@H](CCCN=C(N)N)n3cc(C[C@@H](C)CC)nn3)CC2)n1 [MLS002153601]
IC50: 4.86 µM

CC(C)NC(=S)NNC1=c2cc(C(C)C)ccc2=NC1=O [SMR000242097]
IC50: 3.56 µM

C#CCOCCOCCOCCNc1nc(N2CCN(C(=O)CCCCCCCCCCNC(=O)Cn3cc(CCCCCN)nn3)CC2)nc(N2CCN(C(=O)CCCCCCCCCCNC(=O)Cn3cc(CCCCCN)nn3)CC2)n1 [SMR001231146]
IC50: 3.36 µM

CCN(CC)CCOC(=O)c1ccc(N=CC(C#N)c2nc(-c3ccc4c(c3)OCO4)cs2)cc1 (stereo not given) [2-(diethylamino)ethyl 4-[[(Z)-2-[4-(1,3-benzodioxol-5-yl)-1,3-thiazol-2-yl]-2-cyano-ethenyl]amino]benzoate]
IC50: 5.07 µM

C#CCOCCOCCOCCNc1nc(N2CCN(C(=O)CCCCCCCCCCNC(=O)[C@H]([C@@H](C)CC)n3cc(CCCCN=C(N)N)nn3)CC2)nc(N2CCN(C(=O)CCCCCCCCCCNC(=O)[C@@H]([C@H](C)O)n3cc(C)nn3)CC2)n1 [GT-RI]
IC50: 4.63 µM

CC1CC(C)(C)N2C(=O)/C(=N\NC(N)=S)c3cccc1c32 (stereo not given) [SMR000414933]
IC50: 4.95 µM

CCOc1ccc(-c2csc(NC(=O)c3cccc(-n4c(O)ccc4O)c3)n2)cc1 [SMR000319795]
IC50: > 20 µM

CC1=CC(C)(C)N2C(=O)/C(=N\NC(N)=S)c3cccc1c32 [SMR000218901]
IC50: 4.79 µM

CCN(CC)CCOC(=O)c1ccc(N=CC(C#N)c2nc(-c3ccc(OC)cc3)cs2)cc1 (stereo not given) [4-[[(Z)-2-cyano-2-[4-(4-methoxyphenyl)-2-thiazolyl]ethenyl]amino]benzoic acid 2-(diethylamino)ethyl ester]
IC50: 4.3 µM

COc1cc(C2c3c(-c4cccs4)n[nH]c3OC(=N)C2C#N)cc(OC)c1O (stereo not given) [SMR000275523]
IC50: 1.47 µM

C#CCOCCOCCOCCNc1nc(N2CCN(C(=O)CCCCCCCCCCNC(=O)[C@H](CCCCN)n3cc(CCO)nn3)CC2)nc(N2CCN(C(=O)CCCCCCCCCCNC(=O)[C@H](CCCCN)n3cc(CCCC(=O)O)nn3)CC2)n1 [MLS002153608]
IC50: 10.4 µM

CCNC(=S)NNC1=c2cc(C(C)C)ccc2=NC1=O [1-ethyl-3-[(2-oxo-5-propan-2-yl-3-indolyl)amino]thiourea]
IC50: 2.49 µM

C#CCOCCOCCOCCNc1nc(N2CCN(C(=O)CCCCCCCCCCNC(=O)[C@H]([C@@H](C)CC)n3cc(CCCCCN)nn3)CC2)nc(N2CCN(C(=O)CCCCCCCCCCNC(=O)[C@H]([C@@H](C)CC)n3cc(CCCCN=C(N)N)nn3)CC2)n1 [MLS002153718]
IC50: 2.19 µM

C#CCOCCOCCOCCNc1nc(N2CCN(C(=O)CCCCCCCCCCNC(=O)[C@@H](CCSC)n3cc(CCO)nn3)CC2)nc(N2CCN(C(=O)CCCCCCCCCCNC(=O)[C@H](CCC(=O)O)n3cc(CCCCCN)nn3)CC2)n1 [MLS002153730]
IC50: 16 µM

CCN(CC)CCOC(=O)c1ccc(N=CC(C#N)c2nc(-c3cc4ccccc4oc3=O)cs2)cc1 (stereo not given) [2-(diethylamino)ethyl 4-[[(Z)-2-cyano-2-[4-(2-oxochromen-3-yl)-1,3-thiazol-2-yl]ethenyl]amino]benzoate]
IC50: 3.5 µM

C#CCOCCOCCOCCNc1nc(N2CCN(C(=O)CCCCCCCCCCNC(=O)Cn3cc(CCCCCN)nn3)CC2)nc(N2CCN(C(=O)CCCCCCCCCCNC(=O)[C@H]([C@@H](C)CC)n3cc(CCCCCN)nn3)CC2)n1 [MLS002153714]
IC50: 2.29 µM

C#CCOCCOCCOCCNc1nc(N2CCN(C(=O)CCCCCCCCCCNC(=O)Cn3cc(CCCCCN)nn3)CC2)nc(N2CCN(C(=O)CCCCCCCCCCNC(=O)Cn3cc(C[C@@H](C)O)nn3)CC2)n1 [KG-TG]
IC50: 7.41 µM

Cc1cccc2c1C(=NNC(N)=S)C(=O)N2C1OC(CO)C(O)C(O)C1O (stereo not given) [The compound has not trivial name.]
IC50: 4.56 µM

C#CCOCCOCCOCCNc1nc(N2CCN(C(=O)[C@H](CCCCN)n3cc([C@@H](N)CC(C)C)nn3)CC2)nc(N2CCN(C(=O)[C@H](Cc3cc4ccccc4[nH]3)n3cc([C@@H](N)Cc4ccc(O)cc4)nn3)CC2)n1 [SMR000391143]
IC50: 2.78 µM

C#CCOCCOCCOCCNc1nc(N2CCN(C(=O)[C@H](Cc3cc4ccccc4[nH]3)n3cc([C@@H](N)C(C)CC)nn3)CC2)nc(N2CCN(C(=O)[C@H](CCCCN)n3cc([C@@H](N)CC(C)C)nn3)CC2)n1 (stereo not given in full) [MLS000562581]
IC50: 2.07 µM

CCOC(=O)C1C(COC(=O)c2ncc(Cl)c(Cl)c2Cl)=NC(=O)NC1C (stereo not given)
IC50: 9.23 µM

Oc1c(Cc2cnc[nH]2)[nH]c(=S)n1-c1ccccc1 [MLS001163810]
IC50: 4 µM

CCN(CC)CCOC(=O)c1ccc(N=CC(C#N)c2nc(-c3ccc(OC)c(OC)c3)cs2)cc1 (stereo not given) [SMR000434079]
IC50: 3.02 µM

NC(=S)NN=C1C(=O)N(CCCl)c2ccccc21
IC50: 10.8 µM

O=C1N=c2ccccc2=C1NNC(=S)NCC1CCCO1 (stereo not given)
IC50: 0.967 µM

NC(=S)NN=C1C(=O)N(C2OC(=O)c3ccccc32)c2ccccc21 (stereo not given) [[(Z)-[2-oxo-1-(3-oxo-1H-isobenzofuran-1-yl)-3-indolylidene]amino]thiourea]
IC50: 2.38 µM

N=C(N)C1=CC(=O)/C(=C/C=c2ccc(=C(N)N)cc2)C=C1 [(4E)-4-[2-[4-[bis(azanyl)methylidene]cyclohexa-2,5-dien-1-ylidene]ethylidene]-3-oxidanylidene-cyclohexa-1,5-diene-1-carboximidamide;2-oxidanylethanesulfonic acid]
IC50: 2.8 µM

C#CCOCCOCCOCCNc1nc(N2CCN(C(=O)CCCCCCCCCCNC(=O)[C@H](CO)n3cc(CCCSC)nn3)CC2)nc(N2CCN(C(=O)CCCCCCCCCCNC(=O)[C@H](CCCCN)n3cc(CCO)nn3)CC2)n1 [SMR001318322]
IC50: 5.71 µM

C#CCOCCOCCOCCNc1nc(N2CCN(C(=O)CCCCCCCCCCNC(=O)[C@H](CCCCN)n3cc(CCCC(=O)O)nn3)CC2)nc(N2CCN(C(=O)CCCCCCCCCCNC(=O)[C@H](CCCN=C(N)N)n3cc(C[C@@H](C)CC)nn3)CC2)n1 [EK-IR]
IC50: 3.61 µM

C#CCOCCOCCOCCNc1nc(N2CCN(C(=O)[C@H](CCCCN)n3cc([C@@H](N)C(C)CC)nn3)CC2)nc(N2CCN(C(=O)[C@H](Cc3cc4ccccc4[nH]3)n3cc([C@@H](N)C(C)CC)nn3)CC2)n1 (stereo not given in full) [MLS000562580]
IC50: 2.68 µM

C#CCOCCOCCOCCNc1nc(N2CCN(C(=O)[C@H](Cc3cc4ccccc4[nH]3)n3cc([C@@H](N)C(C)CC)nn3)CC2)nc(N2CCN(C(=O)[C@H](Cc3cc4ccccc4[nH]3)n3cc([C@@H](N)Cc4ccc(O)cc4)nn3)CC2)n1 (stereo not given in full) [SMR000391146]
IC50: 6.27 µM

C#CCOCCOCCOCCNc1nc(N2CCN(C(=O)CCCCCCCCCCNC(=O)[C@H](CCCCN)n3cc(C)nn3)CC2)nc(N2CCN(C(=O)CCCCCCCCCCNC(=O)[C@@H]([C@H](C)CC)n3cc(CCCCCN)nn3)CC2)n1 [MLS002153655]
IC50: 2.23 µM

COCCNC(=S)NN=C1C(=O)Nc2ccc([N+](=O)[O-])cc21 [1-(2-methoxyethyl)-3-[(5-nitro-2-oxoindol-3-yl)amino]thiourea]
IC50: 1.52 µM

O=C1Nc2ccccc2/C1=N/NC(=S)Nc1ccc(O)cc1 [1-(4-hydroxyphenyl)-3-[(2-oxidanylideneindol-3-yl)amino]thiourea]
IC50: 0.763 µM

C#CCOCCOCCOCCNc1nc(N2CCN(C(=O)CCCCCCCCCCNC(=O)[C@H](CCCCN)n3cc(CCO)nn3)CC2)nc(N2CCN(C(=O)CCCCCCCCCCNC(=O)[C@@H]([C@H](C)O)n3cc(C)nn3)CC2)n1 [MLS002153685]
IC50: 7.24 µM
